Where a name gives a salt, the structure may show the parent alone.
Tests used:
MELK = MELK (Homo sapiens, UniProt Q14680); assay: Kinase assay (IMAP fluorescence polarization, FITC-labeled histone H3 peptide); assay type: biochemical; conditions: 50 micro-M ATP
How it was run: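 Kinase (0.8 ng/μL) reacted with 100 nM FITC-histone H3 peptide and 50 μM ATP in 20 mM HEPES, 0.3 mM MgCl2, 2 mM DTT, 0.01% Tween-20, pH 7.4, for 1 hour at room temperature. Phosphorylation read by IMAP fluorescence polarization after adding binding solution; IC50 from four-parameter fit.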

22Rv1 cells = assay: Cell-based assay, anti-proliferative activity (Cell Counting Kit-8, 72 hours); parameters: species or system human; conditions: Homo sapiens, 22Rv1, 72 h, read-out: IC50 (μM) (22Rvl)
How it was run: (§1)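 Cells seeded at 2,000–3,000 cells/well and exposed to candidate MELK inhibitors for 72 hours; growth measured with Cell Counting Kit-8. IC50 values calculated from the growth read-out.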

A549 cells = assay: as above; parameters: species or system human; conditions: Homo sapiens, A549, 72 h, read-out: IC50 (μM) (A549)
How it was run: as §1

DU4475 cells = assay: as above; parameters: species or system human; conditions: Homo sapiens, DU-4475, 72 h, read-out: IC50 (μM) (DU4475)
How it was run: as §1

T47D cells = assay: as above; parameters: species or system human; conditions: Homo sapiens, T47D, 72 h, read-out: IC50 (μM) (T47D)
How it was run: as §1

HT1197 cells = assay: Cell-based assay, anti-proliferative activity, MELK-negative control (Cell Counting Kit-8, 72 hours); parameters: species or system human; conditions: Homo sapiens, HT1197, 72 h, read-out: IC50 (μM) (HTll97)
Protocol: 100 micro-L of cell suspension was seeded onto 96-well microtiter plate (ViewPlate-96FTC, PerkinElmer). The initial cell concentration of 22Rv1, T47D, A549, DU4475, and HT1197 were 3,000 cells/well, 2,000 cells/well and 2,500 cells/well, respectively. Cellular growth was determined using Cell Counting Kit-8 (DOJINDO) at 72 hours after the exposure of the candidate inhibitors. […] Accurate IC50 values were calculated as described previously.

MELK, sequence (Q14680 whole entry, looked up): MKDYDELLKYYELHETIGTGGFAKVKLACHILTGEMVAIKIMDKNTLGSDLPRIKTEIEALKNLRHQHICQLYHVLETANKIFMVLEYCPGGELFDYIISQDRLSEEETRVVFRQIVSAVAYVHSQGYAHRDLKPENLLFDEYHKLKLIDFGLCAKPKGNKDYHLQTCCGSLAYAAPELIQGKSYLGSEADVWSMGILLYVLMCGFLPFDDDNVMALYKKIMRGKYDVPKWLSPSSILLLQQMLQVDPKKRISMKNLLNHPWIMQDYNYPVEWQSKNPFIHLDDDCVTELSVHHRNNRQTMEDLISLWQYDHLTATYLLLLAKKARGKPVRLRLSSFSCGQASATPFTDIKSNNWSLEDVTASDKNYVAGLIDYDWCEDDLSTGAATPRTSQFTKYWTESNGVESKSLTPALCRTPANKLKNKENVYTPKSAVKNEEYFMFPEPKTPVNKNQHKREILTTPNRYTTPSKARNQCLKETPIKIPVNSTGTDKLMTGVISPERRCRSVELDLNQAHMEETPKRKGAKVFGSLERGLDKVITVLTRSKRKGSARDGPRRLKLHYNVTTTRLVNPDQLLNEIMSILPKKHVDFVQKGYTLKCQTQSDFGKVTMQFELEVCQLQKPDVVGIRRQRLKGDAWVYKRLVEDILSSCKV

Row | Compound | IC50 (MELK) [µM] | IC50 (22Rv1 cells) [µM] | IC50 (A549 cells) [µM] | IC50 (DU4475 cells) [µM] | IC50 (T47D cells) [µM] | IC50 (HT1197 cells) [µM]
1 | CC(=O)c1cnc2ccc(-c3cc(Cl)c(O)c(Cl)c3)nc2c1N[C@H]1CC[C@H](CN2CCOCC2)CC1 [Example 47, 1-[6-(3,5-Dichloro-4-hydroxyphenyl)-4-{[trans-4-(morpholinomethyl)cyclohexyl]amino}-1,5-naphthyridin-3-yl]ethanone] | 0.01 | 0.034 | 0.02 | 0.009 | 0.015 | 0.16
2 | CC(=O)c1cnc2ccc(-c3cc(Cl)c(O)c(Cl)c3)nc2c1N[C@H]1CC[C@H](CN(C)CCO)CC1 [Example 48, 1-[6-(3,5-Dichloro-4-hydroxyphenyl)-4-(trans-4-{[(2-hydroxyethyl)(methyl)amino]methyl}-cyclohexylamino)-1,5-naphthyridin-3-yl]ethanone dihydrochloride] | 0.0006 | 0.0092 | 0.02 | 0.0034 | 0.0068 | 0.57
3 | CC(=O)c1cnc2ccc(-c3cc(F)c(O)c(Cl)c3)nc2c1N[C@H]1CC[C@H](CN(C)CCO)CC1 [Example 49, 1-[6-(3-Chloro-5-fluoro-4-hydroxyphenyl)-4-(trans-4-{[(2-hydroxyethyl)(methyl)amino]-methyl}cyclohexylamino)-1,5-naphthyridin-3-yl]ethanone dihydrochloride] | 0.001 | 0.0087 | 0.021 | 0.0039 | 0.0039 | 0.49
4 | CC(=O)c1cnc2ccc(-c3cc(F)c(O)c(F)c3)nc2c1N[C@H]1CC[C@H](CN(C)C)CC1 [Example 50, 1-[6-(3,5-Difluoro-4-hydroxyphenyl)-4-{trans-4-[(dimethylamino)methyl]cyclohexylamino}-1,5-naphthyridin-3-yl]ethanone dihydrochloride] | 0.0019 | 0.017 | 0.015 | 0.0053 | 0.0061 | 0.08
5 | CC(=O)c1cnc2ccc(-c3cc(Cl)c(O)c(Cl)c3)nc2c1Nc1ccc(N2CCC(N(C)C)C2)nc1 (stereo not drawn) [Example 51, 1-[6-(3,5-Dichloro-4-hydroxyphenyl)-4-{6-[3-(dimethylamino)pyrrolidin-1-yl]pyridin-3-ylamino}-1,5-naphthyridin-3-yl]ethanone trihydrochloride] | 0.0082 | 0.36 | 0.32 | 0.32 | 0.19 | 2.8
6 | CC(=O)c1cnc2ccc(-c3cc(F)c(O)c(Cl)c3)nc2c1Nc1ccc(N2CCC(N(C)C)C2)nc1 (stereo not drawn) [Example 52, 1-[6-(3-Chloro-5-fluoro-4-hydroxyphenyl)-4-{6-[3-(dimethylamino)pyrrolidin-1-yl]pyridin-3-ylamino}-1,5-naphthyridin-3-yl]ethanone trihydrochloride] | 0.027 | 0.44 | 0.39 | 0.4 | 0.18 | 2
7 | CNC1CCN(c2ccc(Nc3c(C(C)=O)cnc4ccc(-c5cc(Cl)c(O)c(Cl)c5)nc34)cn2)C1 (stereo not drawn) [Example 53, 1-(6-(3,5-Dichloro-4-hydroxyphenyl)-4-{6-[3-(methylamino)pyrrolidin-1-y]pyridin-3-ylamino}-1,5-naphthyridin-3-yl)ethanone trihydrochloride] | 0.0015 | 0.078 | 0.2 | 0.071 | 0.042 | 100
8 | CNC1CCN(c2ccc(Nc3c(C(C)=O)cnc4ccc(-c5cc(F)c(O)c(Cl)c5)nc34)cn2)C1 (stereo not drawn) [Example 54, 1-(6-(3-Chloro-5-fluoro-4-hydroxyphenyl)-4-{6-[3-(methylamino)pyrrolidin-1-yl]pyridin-3-ylamino}-1,5-naphthyridin-3-yl)ethanone trihydrochloride] | 0.012 | 0.086 | 0.17 | 0.11 | 0.04 | 3.9
9 | CC(=O)c1cnc2ccc(-c3ccc4[nH]cnc4c3)nc2c1N[C@H]1CC[C@H](CN(C)C)CC1 [Example 55, 1-(6-(1H-Benzo[d]imidazol-5-yl)-4-{trans-4-[(dimethylamino)methyl]cyclohexylamino}-1,5-naphthyridin-3-yl)ethanone trihydrochloride] | 0.017 | 0.3 | 0.25 | 0.65 | 0.084 | 2
10 | CC(=O)c1cnc2ccc(-c3ccncc3)nc2c1N[C@H]1CC[C@H](CN(C)C)CC1 [Example 56, 1-{4-[4-(trans-4-Dimethylamino)methylcyclohexylamino]-6-(pyridin-4-yl)-1,5-naphthyridin-3-yl}ethanone trihydrochloride] | 0.016 | 0.86 | 0.52 | 0.46 | 0.38 | 1.7
11 | CC(=O)c1cnc2ccc(-c3cnc(C#N)nc3)nc2c1N[C@H]1CC[C@H](CN(C)C)CC1 [Example 57, 5-(7-Acetyl-8-{trans-4-[(dimethylamino)methyl]cyclohexylamino}-1,5-naphthyridin-2-yl)pyrimidine-2-carbonitrile] | 0.0012 | 0.24 | 0.56 | 0.22 | 0.089 | 0.38
12 | CC(=O)c1cnc2ccc(-c3c(C)n[nH]c3C)nc2c1N[C@H]1CC[C@H](CN(C)C)CC1 [Example 58, 1-(6-(3,5-Dimethyl-1H-pyrazol-4-yl)-4-{trans-4-[(dimethylamino)methyl]cyclohexylamino}-1,5-naphthyridin-3-yl)ethanone trihydrochloride] | 1 | 6.1 | 3 | 5.9 | 1.6 | 10
13 | CC(=O)c1cnc2ccc(-c3cc(C)c(O)c(C)c3)nc2c1N[C@H]1CC[C@H](CN(C)C)CC1 [Example 59, 1-(4-{trans-4-[(Dimethylamino)methyl]-cyclohexylamino}-6-(4-hydroxy-3,5-dimethylphenyl)-1,5-naphthyridin-3-yl) ethanone dihydrochloride] | 0.0047 | 2.5 | 0.23 | 0.21 | 0.39 | 7.5
14 | CC(=O)c1cnc2ccc(-c3cc(Cl)c(O)c(Cl)c3)nc2c1Nc1ccc(CN2CCCC2)cc1 [Example 60, dihydrochloride] | 0.0043 | 0.1 | 0.11 | 0.041 | 0.066 | 1.1
15 | CC(=O)c1cnc2ccc(-c3cc(Cl)c(O)c(Cl)c3)nc2c1N[C@H]1CC[C@H](CN2CCCC2)CC1 [Example 61, 1-{6-(3,5-Dichloro-4-hydroxyphenyl)-4-[trans-4-(pyrrolidin-1-ylmethyl)cyclohexylamino]-1,5-naphthyridin-3-yl}ethanone dihydrochloride] | 0.0004 | 0.011 | 0.012 | 0.0044 | 0.0069 | 0.15
16 | CC(=O)c1cnc2ccc(-c3cc(F)c(O)c(Cl)c3)nc2c1N[C@H]1CC[C@H](CN2CCCC2)CC1 [Example 62, 1-(6-(3-Chloro-5-fluoro-4-hydroxyphenyl)-4-{[trans-4-(pyrrolidin-1-ylmethyl)cyclohexyl]amino}-1,5-naphthyridin-3-yl)ethanone dihydrochloride] | 0.0009 | 0.0073 | 0.011 | 0.0037 | 0.0034 | 0.091

From patent publication US9067937B2 (priority 2012, dated 2015)
